Results published in the NIST ThermoML archive (doi:10.1021/je1003065).

Test: mn = molality of the nth substance listed, in mol/kg
Settings: Liquid, Vibrating tube method

[Br-].[Li+] [lithium bromide] + CCO
Settings	mass density [kg/m3]
333.09 K, 10272 kPa, m1 = 2.272	902.05
333.1 K, 20223 kPa, m1 = 1.462	864.16
333.11 K, 2291 kPa, m1 = 1.462	848.63
333.11 K, 9932 kPa, m1 = 1.462	855.51
333.11 K, 29979 kPa, m1 = 1.462	871.75
333.12 K, 5163 kPa, m1 = 1.462	851.27
333.12 K, 39966 kPa, m1 = 1.462	878.97
333.12 K, 49993 kPa, m1 = 1.462	885.74
333.12 K, 59791 kPa, m1 = 1.462	891.94
333.12 K, 69993 kPa, m1 = 1.462	898.03
333.12 K, 79815 kPa, m1 = 1.462	903.61
333.12 K, 89925 kPa, m1 = 1.462	909.13
333.12 K, 100027 kPa, m1 = 1.462	914.48
333.13 K, 2335 kPa, m1 = 2.272	895.03
333.13 K, 10112 kPa, m1 = 0.5972	803.35
333.13 K, 79924 kPa, m1 = 0.2335	831.2
333.14 K, 1023 kPa, m1 = 0.2335	771.66
333.14 K, 1618 kPa, m1 = 3.368	952.85
333.14 K, 5026 kPa, m1 = 2.833	927.9
333.14 K, 19985 kPa, m1 = 0.2335	789.05
333.14 K, 40021 kPa, m1 = 2.833	953.59
333.14 K, 80002 kPa, m1 = 2.833	976.7
333.15 K, 1032 kPa, m1 = 2.833	924.49
333.15 K, 1267 kPa, m1 = 0.9499	816.76
333.15 K, 1305 kPa, m1 = 0.9499	816.8
333.15 K, 2100 kPa, m1 = 0.5972	796.01
333.15 K, 5177 kPa, m1 = 2.272	897.13
333.15 K, 5214 kPa, m1 = 0.9499	820.56
333.15 K, 5223 kPa, m1 = 0.5972	798.91
333.15 K, 9985 kPa, m1 = 2.833	931.98
333.15 K, 10026 kPa, m1 = 0.2335	780.15
333.15 K, 19923 kPa, m1 = 0.9499	833.66
333.15 K, 29942 kPa, m1 = 0.9499	841.73
333.15 K, 29965 kPa, m1 = 2.833	946.88
333.15 K, 40014 kPa, m1 = 0.9499	849.24
333.15 K, 49925 kPa, m1 = 2.833	959.77
333.15 K, 50021 kPa, m1 = 0.2335	812.76
333.15 K, 50078 kPa, m1 = 0.9499	856.2
333.15 K, 59924 kPa, m1 = 0.9499	862.57
333.15 K, 60012 kPa, m1 = 0.2335	819.01
333.15 K, 60159 kPa, m1 = 0.5972	841.68
333.15 K, 69784 kPa, m1 = 2.833	971.18
333.15 K, 69794 kPa, m1 = 0.9499	868.58
333.15 K, 69985 kPa, m1 = 0.2335	825.32
333.15 K, 79935 kPa, m1 = 0.9499	874.45
333.15 K, 89956 kPa, m1 = 2.833	981.93
333.15 K, 89965 kPa, m1 = 0.2335	837.01
333.15 K, 89984 kPa, m1 = 0.9499	880.02
333.15 K, 99907 kPa, m1 = 2.272	958.17
333.15 K, 99958 kPa, m1 = 0.2335	842.17
333.15 K, 99967 kPa, m1 = 2.833	987.14
333.15 K, 99986 kPa, m1 = 0.9499	885.41
333.16 K, 5021 kPa, m1 = 0.2335	775.49
333.16 K, 19968 kPa, m1 = 2.833	939.71
333.16 K, 20295 kPa, m1 = 0.5972	812.23
333.16 K, 29945 kPa, m1 = 0.2335	797.44
333.16 K, 29996 kPa, m1 = 0.5972	820.22
333.16 K, 49994 kPa, m1 = 0.5972	835.21
333.16 K, 59945 kPa, m1 = 2.833	965.67
333.16 K, 69994 kPa, m1 = 0.5972	847.73
333.16 K, 80063 kPa, m1 = 0.5972	854.04
333.16 K, 89993 kPa, m1 = 0.5972	859.28
333.16 K, 100035 kPa, m1 = 0.5972	864.08
333.17 K, 39784 kPa, m1 = 0.2335	805.21
333.17 K, 40191 kPa, m1 = 0.5972	828.11
333.17 K, 89994 kPa, m1 = 2.272	952.98
333.17 K, 99575 kPa, m1 = 3.368	1013.64
333.18 K, 19918 kPa, m1 = 3.368	967.06
333.18 K, 20737 kPa, m1 = 2.272	910.39
333.18 K, 29946 kPa, m1 = 3.368	974.09
333.18 K, 29993 kPa, m1 = 2.272	917.22
333.18 K, 39652 kPa, m1 = 3.368	980.47
333.18 K, 40158 kPa, m1 = 2.272	924.19
333.18 K, 49954 kPa, m1 = 2.272	930.45
333.18 K, 49993 kPa, m1 = 3.368	986.85
333.18 K, 59593 kPa, m1 = 3.368	992.46
333.18 K, 60271 kPa, m1 = 2.272	936.65
333.18 K, 69927 kPa, m1 = 3.368	998.21
333.18 K, 69979 kPa, m1 = 2.272	942.19
333.18 K, 79359 kPa, m1 = 2.272	947.33
333.18 K, 79861 kPa, m1 = 3.368	1003.51
333.18 K, 89946 kPa, m1 = 3.368	1008.74
333.19 K, 5051 kPa, m1 = 3.368	955.66
333.19 K, 9894 kPa, m1 = 3.368	959.51
348.13 K, 29954 kPa, m1 = 0.2335	785.62
348.13 K, 59964 kPa, m1 = 2.833	956.11
348.14 K, 9989 kPa, m1 = 2.833	920.29
348.14 K, 10032 kPa, m1 = 0.2335	766.83
348.14 K, 10035 kPa, m1 = 0.5972	790.37
348.14 K, 19956 kPa, m1 = 2.272	898.47
348.14 K, 19956 kPa, m1 = 3.368	955.83
348.14 K, 29914 kPa, m1 = 0.5972	809.07
348.14 K, 30021 kPa, m1 = 1.462	860.82
348.14 K, 39925 kPa, m1 = 2.272	913.47
348.14 K, 50012 kPa, m1 = 0.5972	824.77
348.14 K, 69957 kPa, m1 = 3.368	988.75
348.14 K, 79624 kPa, m1 = 2.272	938.32
348.14 K, 89957 kPa, m1 = 0.5972	850.38
348.15 K, 1002 kPa, m1 = 0.5972	781.38
348.15 K, 1002 kPa, m1 = 3.368	940.13
348.15 K, 1003 kPa, m1 = 2.272	881.25
348.15 K, 1024 kPa, m1 = 0.2335	757.55
348.15 K, 1035 kPa, m1 = 2.833	912.41
348.15 K, 1304 kPa, m1 = 0.9499	803.97
348.15 K, 2021 kPa, m1 = 1.462	835.77
